System: patients with seasonal allergic rhinitis (SAR)
Assay: MP 428 study: individual symptom severity scores (runny nose, itchy nose, sneezing, congestion; 0-3 scale)
Assay type: in vivo, human
Conditions: Intent-to-Treat Population
Protocol: A two-week, randomized, double-blind study, which evaluated the effects of the co-administration of ASTELIN® (azelastine hydrochloride (HCl)) and FLONASE® (fluticasone propionate) compared to either product alone in patients with seasonal allergic rhinitis (SAR) was conducted during the 2006 Texas mountain cedar season. After a 5-day placebo lead-in period, 151 patients with moderate-to-severe allergic rhinitis symptoms were randomized to either: (1) (49 total patients) ASTELIN® (azelastine hydrochloride (HCl)) plus placebo saline nasal spray 2 sprays per nostril, 15 minutes apart, twice daily (AM & PM); (2) (50 total patients) FLONASE® (fluticasone propionate) plus placebo saline nasal spray, 2 sprays per nostril, 15 minutes apart, once daily (AM) and two sessions of placebo saline nasal spray, 2 sprays per nostril, 15 minutes apart (PM); or (3) (52 total patients) the co-administration of ASTELIN® (azelastine hydrochloride (HCl)) 2 sprays per nostril plus FLONASE® (fluticasone propionate) 2 sprays per nostril (AM), 15 minutes apart, and ASTELIN® (azelastine hydrochloride (HCl)) 2 sprays per nostril plus placebo saline nasal spray, 15 minutes apart, (PM) for a 2-week double-blind treatment period.
The primary efficacy variable was the change from baseline in the Total Nasal Symptom Score (TNSS), which comprised sneezing, itchy nose, runny nose, and nasal congestion (individual symptoms scores were assigned a value between 0 and 3, where 0=no symptoms and 3=severe symptoms). This study was not statistically designed to assess the differences between ASTELIN® and FLONASE®.
The results of the clinical trial are summarized and presented in Appendix A hereinbelow and in FIGS. 1-6. […] FIGS. 2-5 show the mean improvement in severity score (0-3 scale) from baseline for the symptoms of runny nose, itchy nose, sneezing and congestion, respectively.

## CCC(=O)O[C@]1(C(=O)SCF)[C@H](C)C[C@H]2[C@@H]3C[C@H](F)C4=CC(=O)C=C[C@]4(C)[C@@]3(F)[C@@H](O)C[C@@]21C [Fluticasone, fluticasone propionate]
Day 9
  Change from Baseline in AM and PM Combined Nasal Symptom Score: Congestion, LS Mean: −1.19
  Change from Baseline in AM and PM Combined Nasal Symptom Score: Congestion, Mean: −1.22
  Change from Baseline in AM and PM Combined Nasal Symptom Score: Congestion, Median: −1.27
  Change from Baseline in AM and PM Combined Nasal Symptom Score: Itchy Nose, LS Mean: −1.40
  Change from Baseline in AM and PM Combined Nasal Symptom Score: Itchy Nose, Mean: −1.35
  Change from Baseline in AM and PM Combined Nasal Symptom Score: Itchy Nose, Median: −1.30
  Change from Baseline in AM and PM Combined Nasal Symptom Score: Runny Nose, LS Mean: −1.18
  Change from Baseline in AM and PM Combined Nasal Symptom Score: Runny Nose, Mean: −1.21
  Change from Baseline in AM and PM Combined Nasal Symptom Score: Runny Nose, Median: −1.00
  Change from Baseline in AM and PM Combined Nasal Symptom Score: Sneezing, LS Mean: −1.40
  Change from Baseline in AM and PM Combined Nasal Symptom Score: Sneezing, Mean: −1.29
  Change from Baseline in AM and PM Combined Nasal Symptom Score: Sneezing, Median: −1.40
  Percent Change from Baseline in AM and PM Combined Nasal Symptom Score: Congestion, LS Mean: −22.17%
  Percent Change from Baseline in AM and PM Combined Nasal Symptom Score: Congestion, Mean: −22.28%
  Percent Change from Baseline in AM and PM Combined Nasal Symptom Score: Congestion, Median: −24.05%
  Percent Change from Baseline in AM and PM Combined Nasal Symptom Score: Itchy Nose, LS Mean: −29.96%
  Percent Change from Baseline in AM and PM Combined Nasal Symptom Score: Itchy Nose, Mean: −28.73%
  Percent Change from Baseline in AM and PM Combined Nasal Symptom Score: Itchy Nose, Median: −31.23%
  Percent Change from Baseline in AM and PM Combined Nasal Symptom Score: Runny Nose, LS Mean: −18.79%
  Percent Change from Baseline in AM and PM Combined Nasal Symptom Score: Runny Nose, Mean: −19.22%
  Percent Change from Baseline in AM and PM Combined Nasal Symptom Score: Runny Nose, Median: −16.67%
  Percent Change from Baseline in AM and PM Combined Nasal Symptom Score: Sneezing, LS Mean: −29.73%
  Percent Change from Baseline in AM and PM Combined Nasal Symptom Score: Sneezing, Mean: −28.22%
  Percent Change from Baseline in AM and PM Combined Nasal Symptom Score: Sneezing, Median: −32.58%
Day 10
  Change from Baseline in AM and PM Combined Nasal Symptom Score: Congestion, LS Mean: −1.34
  Change from Baseline in AM and PM Combined Nasal Symptom Score: Congestion, Mean: −1.39
  Change from Baseline in AM and PM Combined Nasal Symptom Score: Congestion, Median: −1.50
  Change from Baseline in AM and PM Combined Nasal Symptom Score: Itchy Nose, LS Mean: −1.21
  Change from Baseline in AM and PM Combined Nasal Symptom Score: Itchy Nose, Mean: −1.19
  Change from Baseline in AM and PM Combined Nasal Symptom Score: Itchy Nose, Median: −1.00
  Change from Baseline in AM and PM Combined Nasal Symptom Score: Runny Nose, LS Mean: −1.52
  Change from Baseline in AM and PM Combined Nasal Symptom Score: Runny Nose, Mean: −1.54
  Change from Baseline in AM and PM Combined Nasal Symptom Score: Runny Nose, Median: −1.45
  Change from Baseline in AM and PM Combined Nasal Symptom Score: Sneezing, LS Mean: −1.57
  Change from Baseline in AM and PM Combined Nasal Symptom Score: Sneezing, Mean: −1.50
  Change from Baseline in AM and PM Combined Nasal Symptom Score: Sneezing, Median: −1.58
  Percent Change from Baseline in AM and PM Combined Nasal Symptom Score: Congestion, LS Mean: −24.97%
  Percent Change from Baseline in AM and PM Combined Nasal Symptom Score: Congestion, Mean: −25.31%
  Percent Change from Baseline in AM and PM Combined Nasal Symptom Score: Congestion, Median: −27.27%
  Percent Change from Baseline in AM and PM Combined Nasal Symptom Score: Itchy Nose, LS Mean: −23.04%
  Percent Change from Baseline in AM and PM Combined Nasal Symptom Score: Itchy Nose, Mean: −22.79%
  Percent Change from Baseline in AM and PM Combined Nasal Symptom Score: Itchy Nose, Median: −18.99%
  Percent Change from Baseline in AM and PM Combined Nasal Symptom Score: Runny Nose, LS Mean: −26.05%
  Percent Change from Baseline in AM and PM Combined Nasal Symptom Score: Runny Nose, Mean: −26.39%
  Percent Change from Baseline in AM and PM Combined Nasal Symptom Score: Runny Nose, Median: −29.13%
  Percent Change from Baseline in AM and PM Combined Nasal Symptom Score: Sneezing, LS Mean: −31.65%
  Percent Change from Baseline in AM and PM Combined Nasal Symptom Score: Sneezing, Mean: −31.17%
  Percent Change from Baseline in AM and PM Combined Nasal Symptom Score: Sneezing, Median: −33.33%
Day 11
  Change from Baseline in AM and PM Combined Nasal Symptom Score: Congestion, LS Mean: −1.22
  Change from Baseline in AM and PM Combined Nasal Symptom Score: Congestion, Mean: −1.28
  Change from Baseline in AM and PM Combined Nasal Symptom Score: Congestion, Median: −1.27
  Change from Baseline in AM and PM Combined Nasal Symptom Score: Itchy Nose, LS Mean: −1.33
  Change from Baseline in AM and PM Combined Nasal Symptom Score: Itchy Nose, Mean: −1.29
  Change from Baseline in AM and PM Combined Nasal Symptom Score: Itchy Nose, Median: −1.08
  Change from Baseline in AM and PM Combined Nasal Symptom Score: Runny Nose, LS Mean: −1.51
  Change from Baseline in AM and PM Combined Nasal Symptom Score: Runny Nose, Mean: −1.54
  Change from Baseline in AM and PM Combined Nasal Symptom Score: Runny Nose, Median: −1.42
  Change from Baseline in AM and PM Combined Nasal Symptom Score: Sneezing, LS Mean: −1.78
  Change from Baseline in AM and PM Combined Nasal Symptom Score: Sneezing, Mean: −1.66
  Change from Baseline in AM and PM Combined Nasal Symptom Score: Sneezing, Median: −1.83
  Percent Change from Baseline in AM and PM Combined Nasal Symptom Score: Congestion, LS Mean: −22.54%
  Percent Change from Baseline in AM and PM Combined Nasal Symptom Score: Congestion, Mean: −23.45%
  Percent Change from Baseline in AM and PM Combined Nasal Symptom Score: Congestion, Median: −24.05%
  Percent Change from Baseline in AM and PM Combined Nasal Symptom Score: Itchy Nose, LS Mean: −26.56%
  Percent Change from Baseline in AM and PM Combined Nasal Symptom Score: Itchy Nose, Mean: −25.70%
  Percent Change from Baseline in AM and PM Combined Nasal Symptom Score: Itchy Nose, Median: −27.36%
  Percent Change from Baseline in AM and PM Combined Nasal Symptom Score: Runny Nose, LS Mean: −31.56%
  Percent Change from Baseline in AM and PM Combined Nasal Symptom Score: Runny Nose, Mean: −31.74%
  Percent Change from Baseline in AM and PM Combined Nasal Symptom Score: Runny Nose, Median: −33.33%
  Percent Change from Baseline in AM and PM Combined Nasal Symptom Score: Sneezing, LS Mean: −35.11%
  Percent Change from Baseline in AM and PM Combined Nasal Symptom Score: Sneezing, Mean: −33.52%
  Percent Change from Baseline in AM and PM Combined Nasal Symptom Score: Sneezing, Median: −36.05%
Day 12
  Change from Baseline in AM and PM Combined Nasal Symptom Score: Congestion, LS Mean: −1.41
  Change from Baseline in AM and PM Combined Nasal Symptom Score: Congestion, Mean: −1.49
  Change from Baseline in AM and PM Combined Nasal Symptom Score: Congestion, Median: −1.55
  Change from Baseline in AM and PM Combined Nasal Symptom Score: Itchy Nose, LS Mean: −1.50
  Change from Baseline in AM and PM Combined Nasal Symptom Score: Itchy Nose, Mean: −1.48
  Change from Baseline in AM and PM Combined Nasal Symptom Score: Itchy Nose, Median: −1.17
  Change from Baseline in AM and PM Combined Nasal Symptom Score: Runny Nose, LS Mean: −1.54
  Change from Baseline in AM and PM Combined Nasal Symptom Score: Runny Nose, Mean: −1.58
  Change from Baseline in AM and PM Combined Nasal Symptom Score: Runny Nose, Median: −1.35
  Change from Baseline in AM and PM Combined Nasal Symptom Score: Sneezing, LS Mean: −1.68
  Change from Baseline in AM and PM Combined Nasal Symptom Score: Sneezing, Mean: −1.54
  Change from Baseline in AM and PM Combined Nasal Symptom Score: Sneezing, Median: −1.80

Source: patent US8758816B2, “Compositions comprising azelastine and methods of use thereof” (priority 2004, dated 2014)
